Where “and” joins values, the source holds several entries; their conditions need not be identical. Equal entries are not always repeated.

Series [1] relates to cells derived from infantile Batten disease (INCL or CLN1 deficient). The experiment in a line: JC-1 mitochondrial membrane potential assay of etoposide-induced apoptosis, INCL cells. It is filed as cell-based, human. Particulars: for percentage of cells showing J-aggregates: two patient cell lines, JC-1 stain. The procedure: (§1) Batten disease-derived cell lines were tested for their susceptibility to apoptosis induced by etoposide and whether flupirtine had any protective effect against apoptosis. Cells derived from infantile Batten disease (INCL or CLN1 deficient), cells derived from late infantile Batten disease (LINCL or CLN2 deficient), and cells derived from juvenile Batten disease (JNCL or CLN3 deficient) received an 18 hour incubation in 30 μM etoposide with and without a pre-treatment with 20 μM flupirtine. As a control, cells were also left untreated. Cells were then stained with JC-1 fluorescent stain, which is a mitochondrial membrane potential-sensitive dye. When cells are alive, the mitochondrial potential is maintained and the mitochondria appear green. At the commitment point of apoptosis, proapoptotic agents like etopside cause a drop in mitochondrial membrane potential and the mitochondria appear yellow-red due to the formation of J-aggregates.
(§2) Cell counts were conducted for to determine the percentage of cells showing J-aggregates (TABLE 1).
(§3) The numbers of cells showing J-aggregates indicates the number of cells that are apoptosis-ready but are still viable.

Series [2] has as its system cells derived from juvenile Batten disease (JNCL or CLN3 deficient). The experiment in a line: JC-1 mitochondrial membrane potential assay of etoposide-induced apoptosis, JNCL cells. Format: cell-based, human. Here is the method:
as §1, §2, §3

The test system of series [3] is cells derived from late infantile Batten disease (LINCL or CLN2 deficient). The experiment in a line: JC-1 mitochondrial membrane potential assay of etoposide-induced apoptosis, LINCL cells. Format: cell-based, human. The note with it: for percentage of cells showing J-aggregates: two patient cell lines, JC-1 stain. Here is the method:
as §1, §2, §3

The test system of series [4] is hNT neurons (human post-mitotic, fully-differentiated neurons). As to the kind of experiment: Etoposide-induced apoptosis in differentiated hNT neurons. Format: cell-based. Particulars: pre-treatment with 10 μM flupirtine, 20 μM etoposide 18 hour (FIG. 5). Here is the method: Cells were visualized by fluorescent microscopy.
Finally, human post-mitotic neuronal cells were tested for thier response to flupirtine and etoposide-induced apoptosis. NT2 cells were treated with retinoic acid, then mitotic inhibitors for 6 weeks to become hNT neurons that were fully differentiated. Next, the hNT neurons received an 18 hour incubation in 20 μM etoposide with and without a pre-treatment with 10 μM flupirtine.

The conditions of series [5]: adults and children, chronically for over 12 months; cited from earlier work.
The subject of series [6] is Costa Rican Batten disease-derived fibroblasts (CLN6 deficient). As to the kind of experiment: Protection against etoposide-induced apoptosis, Costa Rican Batten disease cells. It is filed as cell-based, human. The note with it: pretreatment with flupirtine (FIG. 4). The procedure: Graph represents number of living cells after treatments indicated.
Cells derived from Costa Rican Batten disease (CLN6 deficient) were also tested for their response to etoposide. The CLN6 gene remains uncharacterized, though linked to chromosome 15.

The test system of series [7] is retinal pigment epithelial cells and neuronal cells in culture. Particulars: cited from earlier work.
The test system of the next series is stroke in rats. Particulars: rats pretreated with flupirtine; cited from earlier work.
Setting [8] is: 30 μM etoposide alone, 18 hour incubation.
Where [9] appears, read: pre-treatment with 20 μM flupirtine, then 30 μM etoposide 18 hour.

Regarding `COc1cc([C@@H]2c3cc4c(cc3[C@@H](O[C@@H]3O[C@@H]5CO[C@@H](C)O[C@H]5[C@H](O)[C@H]3O)[C@H]3COC(=O)[C@H]23)OCO4)cc(OC)c1O` [Etoposide], the “yellow-red J-aggregates seen by fluorescent microscopy” value in series [1] (etoposide alone (FIG. 3A)), in series [2] (etoposide alone (FIG. 3C)) and in series [3] (etoposide alone (FIG. 3B)) was “many yellow-red aggregates” in each case. Also, the “percentage of cells showing J-aggregates” value in series [1] (setting [8]) was 61% and 51%; in series [2] (two patient cell lines, 30 μM etoposide alone, 18 hour incubation, JC-1 stain), 58.4% and 64%; in series [3] (setting [8]), 100% and 96%.
With `CCOC(=O)Nc1ccc(NCc2ccc(F)cc2)nc1N` [Flupirtine, 2-amino-3-ethoxycarbonylamino-6-(p-fluorobenzylamino)-pyridine], the “effect on etoposide-induced apoptosis” value in series [4] is reported as “completely blocked etoposide-induced apoptosis”. For the same molecule, the “tolerability in chronic use” value in series [5] is listed as “without undue side effect or addiction”. Also, the “protection from etoposide-induced apoptosis (number of living cells)” value in series [6] is reported as “protected from etoposide-induced apoptosis”. Also, the “yellow-red J-aggregates seen by fluorescent microscopy” value in series [1] (flupirtine pretreated, then etoposide (FIG. 3A)) was “no aggregates”; in series [2] (flupirtine pretreated, then etoposide (FIG. 3C)), “no aggregates”; in series [3] (flupirtine pretreated, then etoposide (FIG. 3B)) it was “no aggregates”. The “percentage of cells showing J-aggregates” value in series [1] (setting [9]) is 6.7% and 10.8%; in series [3] (setting [9]), 0% and 1.8%. For the same molecule, in series [7], the effect on apoptosis result was “counteract apoptosis”. Further, the “protection afforded by Flupirtine” value in series [3] (J-aggregate counts, etoposide vs etoposide + flupirtine) is on record as “almost complete”. Further, the “area of ischemia induced by stroke” value in the series with stroke in rats is given as “reduce the area of ischemia”.

The record behind these values is patent publication US6821995B1, “Method of treating batten disease” (priority 1999, dated 2004).
